Experimental data taken from patent publication US20030181507A1, “Use of 3-substituted oxindole derivatives as kcnq potassium channel modulators” (priority 2000, published 2003).

Tests used:
[1] = system: KCNQ channels; conditions: background statement; cited from earlier work
[2] = biological target: BK channels (Homo sapiens, UniProt Q12791); conditions: background statement; cited from earlier work
[3] = biological target: T1, KCNQ4 (Homo sapiens, UniProt P56696); experiment: Membrane potential in current clamp mode, KCNQ4 expressing cell; format: cell-based; conditions: FIG. 3; for membrane potential after addition of compound: 10 μM in bath solution, whole cell, initial resting potential around −60 mV, sequential additions to same cell
T1 construct: expressed in transfected cells; host or cells: HEK-293
Method: (§1) KCNQ4 and KCNQ5 was sub-cloned into the mammalian expression vector pNS1n (NeuroSearch), a custom-designed derivative of pcDNA3Neo (InVitrogen). HEK-293 cells (American Type Culture Collection) were grown in DMEM (Life Technologies) supplemented with 10% FCS (Life Technologies) at 37° C. in 5% CO2.
(§2) One day prior to transfection, 10^6 cells were plated in a cell culture T25 flask (Nunc). Cells were transfected with 2.5 μg of the plasmid pNS1n_KCNQ4 or with 2.5 μg of the plasmid pNS1n_KCNQ5 using Lipofectamine (Life Technologies) according to the manufacturer's instructions. Cells transfected with pNS1n_KCNQ4 or pNS1n_KCNQ5 were selected in media supplemented with 0.5 mg/ml geneticin (G418; Life Technologies).
(§3) Single clones were picked and propagated in selection media for five passages after which they were considered stable. Following the cells were cultured in regular medium without selection agent.
Expression of functional KCNQ4 channels or KCNQ5 channels was verified by patch-clamp measurements.
Transfected cells were cultured on glass cover slips (Ø=3 mm), which were transferred to a small recording chamber. The chamber was perfused with extracellular solutions at a rate of 1 ml/min giving rise to full exchange of the chamber volume (15 μl) each second.
Whole-cell currents were recorded using a HEKA EPC-9 amplifier and borosilicate glass micropipettes with tip resistances of 1.5-3 MΩ. Series resistances were below 5 MΩ, mostly stayed constant during the experiment and were compensated by 70%. The currents were not leak-subtracted.
All experiments were performed at room temperature (21-25° C.). Igor software (WaveMetrics, Lake Oswego, Oreg.) was used for the analysis.
The bath solution consisted of 144 mM NaCl, 4 mM KCl, 2 mM CaCl2, 1 mM MgCl2 and 10 mM HEPES (pH adjusted to 7.4). The pipette solution consisted of 144 mM KCl, 5.4 mM CaCl2, 1.8 mM MgCl2, 4 mM NaATP, 0.4 mM GTP, 10 mM EGTA and 10 mM HEPES (pH adjusted to 7.2).
The membrane potential was measured in current clamp mode using the whole cell configuration of the patch clamp technique. A resting membrane potential of around −60 mV was initially recorded from this cell and the addition of 10 μM Compound 1 to the bath solution induced a hyper-polarisation of the membrane potential to −83 mV.
After washout of Compound 1, the membrane potential returned to −69 mV, and subsequent addition of 10 μM Retigabine, a KCNQ activator, induced a faster but smaller hyperpolarisation to a membrane potential of −76 mV.
The compounds were present in the bath solution during the times indicated by the bars.

[4] = biological target: T2, KCNQ5 (Homo sapiens, UniProt Q9NR82); experiment: Whole-cell voltage clamp of KCNQ5 stably expressed in HEK-293 cells; format: cell-based; conditions: 10 μM, holding −90 mV, step to −30 mV
T2 construct: expressed in transfected cells; host or cells: HEK-293
Method: as §1, §2, §3
Expression of functional KCNQ4 channels or KCNQ5 channels was verified by patch-clamp measurements. […]
(§4) Whole-cell currents were recorded using a HEKA EPC-9 amplifier and borosilicate glass micropipettes with tip resistances of 1.5-3 MΩ. […]
The currents were measured from a cell patch clamped in the whole-cell voltage clamp configuration. […]
The currents recorded in the absence (control) and in the presence of 10 μM of the reference M current blocker XE-991 is shown in the panel to the left.

[5] = biological target: T1, KCNQ4; experiment: Whole-cell voltage clamp of KCNQ4 stably expressed in HEK-293 cells; format: cell-based
Method: as §1, §2
Single clones were picked and propagated in selection media for five passages after which they were considered stable. Following the cells were cultured in regular medium without selection agent. […]
as §4
The currents were measured in voltage mode using the whole-cell configuration of the patch clamp technique. […]
The experimental conditions was as described above, but in this experiment the depolarising potential ranged from −120 mV to +40 mV before a step back to −120 mV where brief inward tail currents were recorded. […]

Chain of BK channels (Q12791 whole entry): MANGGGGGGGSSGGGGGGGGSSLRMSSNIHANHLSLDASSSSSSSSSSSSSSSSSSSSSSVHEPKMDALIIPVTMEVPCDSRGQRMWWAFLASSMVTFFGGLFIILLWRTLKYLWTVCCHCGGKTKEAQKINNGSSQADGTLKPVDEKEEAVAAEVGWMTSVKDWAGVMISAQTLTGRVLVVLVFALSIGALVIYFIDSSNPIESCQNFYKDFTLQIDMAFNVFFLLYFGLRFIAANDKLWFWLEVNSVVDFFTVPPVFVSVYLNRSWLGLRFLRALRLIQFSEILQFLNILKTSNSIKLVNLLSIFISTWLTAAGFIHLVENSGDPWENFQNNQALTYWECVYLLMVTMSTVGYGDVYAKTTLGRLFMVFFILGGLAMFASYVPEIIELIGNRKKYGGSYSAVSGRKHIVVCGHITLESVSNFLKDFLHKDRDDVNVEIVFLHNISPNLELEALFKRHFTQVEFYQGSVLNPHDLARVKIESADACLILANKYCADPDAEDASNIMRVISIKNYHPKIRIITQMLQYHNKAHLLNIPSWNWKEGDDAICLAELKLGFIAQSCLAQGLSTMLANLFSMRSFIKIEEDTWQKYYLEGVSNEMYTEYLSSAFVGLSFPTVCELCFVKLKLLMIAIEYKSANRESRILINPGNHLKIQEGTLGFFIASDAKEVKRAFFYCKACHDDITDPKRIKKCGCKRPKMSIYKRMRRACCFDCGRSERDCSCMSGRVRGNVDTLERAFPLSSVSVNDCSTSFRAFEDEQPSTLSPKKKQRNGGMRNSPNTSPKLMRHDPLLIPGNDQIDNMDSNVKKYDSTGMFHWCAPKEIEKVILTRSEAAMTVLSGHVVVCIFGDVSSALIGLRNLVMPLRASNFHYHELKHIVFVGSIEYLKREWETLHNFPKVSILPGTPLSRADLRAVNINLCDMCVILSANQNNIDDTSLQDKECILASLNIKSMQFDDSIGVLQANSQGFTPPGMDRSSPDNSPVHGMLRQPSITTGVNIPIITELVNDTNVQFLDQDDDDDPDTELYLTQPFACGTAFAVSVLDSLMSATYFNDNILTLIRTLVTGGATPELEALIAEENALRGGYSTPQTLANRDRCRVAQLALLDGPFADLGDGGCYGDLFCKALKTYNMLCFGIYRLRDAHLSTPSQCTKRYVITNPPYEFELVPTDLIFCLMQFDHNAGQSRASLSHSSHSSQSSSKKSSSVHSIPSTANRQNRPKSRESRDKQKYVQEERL

Row | Compound | effect on KCNQ channels [1] | effect on BK channels [2] | membrane potential after addition of compound [3] [mV] | return of membrane potential upon washout ([3]; after 10 μM compound) | reversibility of inhibition of KCNQ5 currents ([4]; FIG. 4) | changes in IV relation and activation curve ([5]; 3 μM, depolarising potential −120 mV to +40 mV, FIG. 2) | activation of KCNQ4 currents ([5]; 0.1, 0.3, 1, 3 and 10 μM, holding −90 mV, step to −40 mV, HEK-293 cells, FIG. 1) | membrane potential after washout of compound ([3]; after washout of 10 μM compound) [mV] | effect on KCNQ5 currents ([4]; after washout of XE-991, FIG. 4)
1 | O=C1c2ccccc2C(Cc2ccncc2)(Cc2ccncc2)c2ccccc21 [XE-991] | potent KCNQ inhibiting compounds | no effect | −12 | returned very slowly towards the control level | not fully reversible |  |  |  | 
2 | O=C1N(c2ccccc2)c2ccccc2C1(Cc1ccncc1)Cc1ccncc1 [Linopiridine] | potent KCNQ inhibiting compounds | no effect |  |  |  |  |  |  | 
3 | COc1ccc(Cl)cc1C1(F)C(=O)Nc2cc(C(F)(F)F)ccc21 (racemic) [Compound 1, (±)-3-(5-chloro-2-methoxyphenyl)-1,3-dihydro-3-fluoro-6-(trifluoromethyl)-2H-indol-2-one] |  |  | −83 |  |  | changes in IV relation and activation curve | dose-dependent activation | −69 | activation
